Measured values published in ChEMBL document CHEMBL3885861, “Open TG-GATES”.

Organism: Rattus norvegicus
Test: Open TG-GATES - Regimen: Daily Repeat
Type: toxicity, organism-based, Sprague-Dawley
Parameters: regimen Daily Repeat, gender Male, age 6 weeks
Settings: in vivo, po, 500 mg/kg, […], route gavage, dose level High; for KIDNEY_L / KIDNEY_R / KIDNEY_TOTAL: tissue Kidney; for LIVER: tissue Liver; for A/G / ALP / ALT / AST / BUN / CRE / Ca / Cl / DBIL / GLC / IP / K / LDH / Na / PL / RALB / TBIL / TC / TG / TP / gamma-GTP: tissue Plasma

Compound: CN1C(=O)OC(C)(C)C1=O [TRIMETHADIONE]
- Lym (tissue Blood, time 28 day): 68.2%
- MCH (tissue Blood, time 28 day): 20.6 pg
- MCHC (tissue Blood, time 28 day): 35.7%
- MCV (tissue Blood, time 28 day): 57.9 fL
- Mono (tissue Blood, time 28 day): 3.4%
- Neu (tissue Blood, time 28 day): 27.2%
- PT (tissue Blood, time 28 day): 14.5 s
- Plat (tissue Blood, time 28 day): 103 x10_4/uL
- RBC (tissue Blood, time 28 day): 744.8 x10_4/ul
- Ret (tissue Blood, time 28 day): 2.3%
- WBC (tissue Blood, time 28 day): 84.6 x10_2/uL
- KIDNEY_L (time 7 day): 1.2 g
- KIDNEY_R (time 7 day): 1.2 g
- KIDNEY_TOTAL (time 7 day): 2.4 g
- KIDNEY_L (time 14 day): 1.3 g
- KIDNEY_R (time 14 day): 1.3 g
- KIDNEY_TOTAL (time 14 day): 2.6 g
- KIDNEY_L (time 28 day): 1.5 g
- KIDNEY_R (time 28 day): 1.4 g
- KIDNEY_TOTAL (time 28 day): 2.9 g
- LIVER (time 7 day): 16.6 g
- LIVER (time 14 day): 17.4 g
- LIVER (time 28 day): 18.4 g
- A/G (time 7 day): 0.8
- ALP (time 7 day): 1535.2 IU/L
- ALT (time 7 day): 62.6 IU/L
- AST (time 7 day): 121 IU/L
- BUN (time 7 day): 16 mg/dL
- CRE (time 7 day): 0.2 mg/dL
- Ca (time 7 day): 10.9 mg/dL
- Cl (time 7 day): 97.2 meq/L
- DBIL (time 7 day): 0.016 mg/dL
- GLC (time 7 day): 179 mg/dL
- IP (time 7 day): 7.7 mg/dL
- K (time 7 day): 4 meq/L
- LDH (time 7 day): 81.4 IU/L
- Na (time 7 day): 146.2 meq/L
- PL (time 7 day): 166.2 mg/dL
- RALB (time 7 day): 2.8 g/dL
- TBIL (time 7 day): 0.042 mg/dL
- TC (time 7 day): 85 mg/dL
- TG (time 7 day): 96.8 mg/dL
- TP (time 7 day): 6.1 g/dL
- gamma-GTP (time 7 day): 1.6 IU/L
- A/G (time 14 day): 0.9
- ALP (time 14 day): 1426.4 IU/L
- ALT (time 14 day): 57 IU/L
- AST (time 14 day): 117.4 IU/L
- BUN (time 14 day): 16.8 mg/dL
- CRE (time 14 day): 0.2 mg/dL
- Ca (time 14 day): 10.7 mg/dL
- Cl (time 14 day): 100.6 meq/L
- DBIL (time 14 day): 0.01 mg/dL
- GLC (time 14 day): 181.6 mg/dL
- IP (time 14 day): 6.7 mg/dL
- K (time 14 day): 3.6 meq/L
- LDH (time 14 day): 127.6 IU/L
- Na (time 14 day): 146.2 meq/L
- PL (time 14 day): 169.6 mg/dL
- RALB (time 14 day): 3.1 g/dL
- TBIL (time 14 day): 0.034 mg/dL
- TC (time 14 day): 97.4 mg/dL
- TG (time 14 day): 59.2 mg/dL
- TP (time 14 day): 6.5 g/dL
- gamma-GTP (time 14 day): 1.6 IU/L
- A/G (time 28 day): 0.9
- ALP (time 28 day): 1105.4 IU/L
- ALT (time 28 day): 57.8 IU/L
- AST (time 28 day): 141.2 IU/L
- BUN (time 28 day): 15.6 mg/dL
- CRE (time 28 day): 0.3 mg/dL
- Ca (time 28 day): 10.4 mg/dL
- Cl (time 28 day): 97.8 meq/L
- DBIL (time 28 day): 0.006 mg/dL
- GLC (time 28 day): 176 mg/dL
- IP (time 28 day): 6.2 mg/dL
- K (time 28 day): 3.6 meq/L
- LDH (time 28 day): 83.2 IU/L
- Na (time 28 day): 145 meq/L
- PL (time 28 day): 155.2 mg/dL
- RALB (time 28 day): 3.1 g/dL
- TBIL (time 28 day): 0.032 mg/dL
- TC (time 28 day): 83.8 mg/dL
- TG (time 28 day): 122.8 mg/dL
- TP (time 28 day): 6.9 g/dL
- gamma-GTP (time 28 day): 1.4 IU/L
